In paper PMC4252588 (FEBS letters, 2014):
Where two headings read alike, the source gives them in different places.

What was measured:
Y-CYP51A [1] = target: T1, Y-CYP51A (Trypanosoma cruzi, UniProt Q7Z1V1, P355S); assay: Reconstituted CYP51 activity assay, eburicol 14α-demethylation; format: biochemical
Tulahuen CYP51 [2] = target: T2, Tulahuen CYP51 (Trypanosoma cruzi, UniProt Q7Z1V1); assay: as above; format: biochemical
Tulahuen CYP51 [3] = target: Tulahuen CYP51 (Trypanosoma cruzi, UniProt Q7Z1V1, A9G); assay: Type 1 spectral response, substrate binding
Y-CYP51A [4] = target: T1, Y-CYP51A; assay: Type 1 spectral response, substrate binding
[5] = tested on: Y strain T. cruzi epimastigotes; assay: Insect stage; format: cell-based, Trypanosoma cruzi; details: insect stage of Y T. cruzi; 1 µM
[6] = tested on: Y strain T. cruzi amastigotes; assay: Cellular infection assay, human stage; format: cell-based, Trypanosoma cruzi
Tulahuen CYP51 [7] = target: T2, Tulahuen CYP51; details: Tulahuen T. cruzi CYP51; cited from earlier work
Y-CYP51A [8] = target: T1, Y-CYP51A; assay: Type 2 spectral response titration with inhibitors; format: binding; details: calculated from the Y-CYP51A titration curves; [P450] 0.4 µM
T. brucei CYP51 = details: cited from earlier work
L. infantum CYP51 = details: cited from earlier work
[9] = tested on: Tulahuen strain of T. cruzi; details: mice infected with Tulahuen strain; cited from earlier work
Tulahuen T. cruzi = details: cells infected by Tulahuen T. cruzi; cited from earlier work
[10] = Tulahuen CYP51, inhibitor/enzyme/substrate 1:1:100, 1 h

C=C(CCC(C)C1CCC2(C)C3=C(CCC12C)C1(C)CCC(O)C(C)(C)C1CC3)C(C)C (stereo not drawn) [Substrate, eburicol]
Turnover number (Y-CYP51A [1]): 2.0±0.2 nmol substrate/nmol P450 /min
Turnover number (Tulahuen CYP51 [2]; Tulahuen CYP51): 5.6±0.3 nmol substrate/nmol P450 /min
Kd (Tulahuen CYP51 [3]): 800 nM
ΔA (% low-to-high spin transition) (Tulahuen CYP51 [3]; Tulahuen CYP51): 36%
Kd (Y-CYP51A [4]): 1540 nM
ΔA (% low-to-high spin transition) (Y-CYP51A [4]; Y-CYP51A): 48%

O=C(N[C@@H](Cn1ccnc1)c1ccc(-c2ccc(F)cc2)cc1F)c1ccc(-c2nnc(-c3ccccc3)o2)cc1 [VFV, (R)-N-(1-(3,4'-difluorobiphenyl-4-yl)-2-(1H-imidazol-1-yl)ethyl)-4-(5-phenyl-1,3,4-oxadiazol-2-yl)benzamide]
Antiparasitic potency compared with VNI [5]: higher antiparasitic potency
Inhibition at I/E/S molar ratio 1:1:100, one hour reaction (Tulahuen CYP51 [2]; [10]): 100%
Antiparasitic potency compared with VNI ([6]; human stage of Y T. cruzi, H9C2 cells, 48 h): higher antiparasitic potency
Inhibitory potency (Tulahuen CYP51 [7]): equally potent
Apparent binding efficiency (Y-CYP51A [8]): 87
Inhibitory potency (T. brucei CYP51): equally potent
Inhibitory potency (L. infantum CYP51): equally potent

O=C(N[C@@H](Cn1ccnc1)c1ccc(Cl)cc1Cl)c1ccc(-c2nnc(-c3ccccc3)o2)cc1 [VNI, (R)-N-(1-(2,4-dichlorophenyl)-2-(1H-imidazol-1-yl)ethyl)-4-(5-phenyl-1,3,4-oxadiazol-2-yl)benzamide]
Outcome of treatment [9]: cure both the acute and chronic models of Chagas disease
Inhibition at I/E/S molar ratio 1:1:100, one hour reaction (Tulahuen CYP51 [2]): 100%
Inhibition of the enzyme (Tulahuen CYP51 [2]): completely inhibited
EC50 ([6]; Trypanosoma cruzi, Vero, in Homo sapiens): > 5 nM
Amastigotes within host cells after treatment ([6]; cardiomyoblasts and Vero cells, up to 1 µM): some trace of amastigotes being observed
Concentration that completely eradicates the parasite (Tulahuen T. cruzi): 8 nM
EC50 (Tulahuen T. cruzi): 1.3 nM
Apparent binding efficiency (Y-CYP51A [8]): 9

O=C(N[C@@H](Cn1cncn1)c1ccc(Cl)cc1Cl)c1ccc(-c2nnc(-c3ccccc3)o2)cc1 [VNT, (R)-N-(1-(2,4-dichlorophenyl)-2-(1H-1,2,4-triazol-1-yl)ethyl)-4-(5-phenyl-1,3,4-oxadiazol-2-yl)benzamide]
Inhibition of the enzyme (Tulahuen CYP51 [2]; Tulahuen CYP51, equimolar amounts of inhibitor): completely inhibited
Inhibition at I/E/S molar ratio 1:1:100, one hour reaction (Tulahuen CYP51 [2]; [10]): 100%
Inhibitory potency (Tulahuen CYP51 [7]): as potent as VNI
Apparent binding efficiency (Y-CYP51A [8]): 2
Inhibitory potency (T. brucei CYP51): weaker inhibitory effect
Inhibitory potency (L. infantum CYP51): weaker inhibitory effect
